Calls of active or inactive are those of the source. The rule behind the calls is not given here.
Experiments:
[1] = molecular target: Dual specificity protein kinase TTK (Homo sapiens) (UniProt P33981); assay: Inhibition of human TTK at 1 uM using MBP as substrate in presence of [gamma33P]-ATP by HotSpot assay relative to control
[2] = molecular target: Serine/threonine-protein kinase Nek2 (Homo sapiens) (UniProt P51955); assay: Inhibition of human NEK2 at 1 uM using MBP substrate in presence of [gamma33P]-ATP by HotSpot assay relative to control
[3] = tested on: EML4-ALK (Homo sapiens), Q9UM73+Q9HC35 [F1174L]; settings: BaF3, dose 500.0 nmol/L, time 3-5 weeks
[4] = tested on: EML4-ALK (Homo sapiens), Q9UM73+Q9HC35 [E1210K]; settings: BaF3, dose 200.0 nmol/L, time 3-5 weeks
[5] = molecular target: Dual specificity tyrosine-phosphorylation-regulated kinase 2 (Homo sapiens) (UniProt Q92630); assay: Inhibition of human DYRK2 at 1 uM using RRRFRPASPLRGPPK as substrate in presence of [gamma33P]-ATP by HotSpot assay relative to control
Mus musculus [6] = assay: In vivo inhibition of ALK signaling in SCID Beige mouse xenografted with ALK positive human KARPAS-299 cells assessed as reduction in phosphorylated ALK level at 10 to 50 mg/kg, po administered as single dose and measured at 6 to 24 hrs by immunoblot analysis; format: functional, organism-based; settings: dose 10-50 mg/kg, time 6-24 hrs
[7] = molecular target: Mitogen-activated protein kinase kinase kinase kinase 4 (Homo sapiens) (UniProt O95819); assay: Inhibition of human MAP4K4 at 1 uM using MBP as substrate in presence of [gamma33P]-ATP by HotSpot assay relative to control
[8] = molecular target: Ribosomal protein S6 kinase alpha-1 (Homo sapiens, UniProt Q15418); assay: Inhibition of human RPS6KA1 using KKLNRTLSVA as substrate in presence of [gamma33P]-ATP by HotSpot assay
[9] = molecular target: Dual specificity mitogen-activated protein kinase kinase 1 (Homo sapiens) (UniProt Q02750); assay: Inhibition of human MAP2K1 at 1 uM using ERK2 as substrate in presence of [gamma33P]-ATP by HotSpot assay relative to control
NCI-H2228 = assay: Antitumor activity against ALK positive human NCI-H2228 cells xenografted in CB-17/SCID orthotopic brain tumor mouse model assessed as median survival time at 25 mg/kg po administered daily and measured after 64 days (reference value: 28 days); format: functional; settings: time 64 day
[10] = molecular target: Mitogen-activated protein kinase 12 (Homo sapiens) (UniProt P53778); assay: Inhibition of human P38gamma at 1 uM using MBP as substrate in presence of [gamma33P]-ATP by HotSpot assay relative to control
Mus musculus [11] = assay: In vivo inhibition of ALK signaling in SCID Beige mouse xenografted with ALK positive human KARPAS-299 cells assessed as reduction in phosphorylated STAT3 level at 10 to 50 mg/kg, po administered as single dose and measured at 6 to 24 hrs by immunoblot analysis; format: functional, organism-based; settings: dose 10-50 mg/kg, time 6-24 hrs
[12] = molecular target: Dual specificity tyrosine-phosphorylation-regulated kinase 4 (Homo sapiens) (UniProt Q9NR20); assay: Inhibition of human DYRK4 at 1 uM using RRRFRPASPLRGPPK as substrate in presence of [gamma33P]-ATP by HotSpot assay relative to control
[13] = tested on: EML4-ALK (Homo sapiens), Q9UM73+Q9HC35 [L1196M]; settings: BaF3, dose 500.0 nmol/L, time 3-5 weeks
[14] = molecular target: Calcium/calmodulin-dependent protein kinase type 1D (Homo sapiens) (UniProt Q8IU85); assay: Inhibition of human CAMK1D at 1 uM using KKALRRQETVDAL as substrate in presence of [gamma33P]-ATP by HotSpot assay relative to control
BaF3 = assay: In vivo inhibition of ALK signaling in mouse implanted with mouse BaF3 cells expressing EML4-ALK G1202R mutant assessed as inhibition of ALK phosphorylation at 25 mg/kg, po administered as single dose and measured at 6 to 24 hrs by ELISA; format: functional, organism-based; settings: time 6-24 hrs
[15] = molecular target: LIM domain kinase 1 (Homo sapiens) (UniProt P53667); assay: Inhibition of human LIMK1 at 1 uM using cofilin as substrate in presence of [gamma33P]-ATP by HotSpot assay relative to control
[16] = molecular target: Dual specificity protein kinase CLK1 (Homo sapiens, UniProt P49759); assay: Inhibition of human CLK1 using MBP as substrate in presence of [gamma33P]-ATP by HotSpot assay
[17] = molecular target: Proto-oncogene tyrosine-protein kinase receptor Ret (Homo sapiens, UniProt P07949, V804L); assay: Inhibition of human RET V804L mutant using RRRRRRRRRRRVYSTDYYRLFNPS as substrate in presence of [gamma33P]-ATP by HotSpot assay
[18] = molecular target: CDK9/cyclin T1 (Homo sapiens) (UniProt O60563+P50750); assay: Inhibition of human CDK9/CyclinT1 at 1 uM using KTFCGTPEYLAPEVRREPRILSEEEQEMFRDFDYIADWC as substrate in presence of [gamma33P]-ATP by HotSpot assay relative to control; format: protein-complex assay
[19] = molecular target: Protein kinase C beta type (Homo sapiens) (UniProt P05771); assay: Inhibition of human PKCb2 at 1 uM using ERMRPRKRQGSVRRRV as substrate in presence of [gamma33P]-ATP by HotSpot assay relative to control
[20] = tested on: EML4-ALK (Homo sapiens), Q9UM73+Q9HC35 [L1152P]; settings: BaF3, time 3-5 weeks
[21] = molecular target: Dual specificity mitogen-activated protein kinase kinase 2 (Homo sapiens) (UniProt P36507); assay: Inhibition of human MAP2K2 at 1 uM using ERK2 as substrate in presence of [gamma33P]-ATP by HotSpot assay relative to control
[22] = molecular target: Serine/threonine-protein kinase Nek7 (Homo sapiens) (UniProt Q8TDX7); assay: Inhibition of human NEK7 at 1 uM using casein as substrate in presence of [gamma33P]-ATP by HotSpot assay relative to control
[23] = molecular target: Interleukin-1 receptor-associated kinase 4 (Homo sapiens) (UniProt Q9NWZ3); assay: Inhibition of human IRAK4 at 1 uM using modified-CGRTGRRNSI-NH2 as substrate in presence of [gamma33P]-ATP by HotSpot assay relative to control
[24] = molecular target: CDK7/Cyclin H/MNAT1 (Homo sapiens) (UniProt P51946+P50613+P51948); assay: Inhibition of human CDK7/CyclinH/MAT1 at 1 uM using MBP as substrate in presence of [gamma33P]-ATP by HotSpot assay relative to control; format: protein-complex assay
[25] = molecular target: Fibroblast growth factor receptor 3 (Homo sapiens, UniProt P22607); assay: Inhibition of human FGFR3 using poly (Glu, Tyr)4:1 as substrate in presence of [gamma33P]-ATP by HotSpot assay

Sequence of Dual specificity protein kinase TTK (Homo sapiens) (P33981 whole entry): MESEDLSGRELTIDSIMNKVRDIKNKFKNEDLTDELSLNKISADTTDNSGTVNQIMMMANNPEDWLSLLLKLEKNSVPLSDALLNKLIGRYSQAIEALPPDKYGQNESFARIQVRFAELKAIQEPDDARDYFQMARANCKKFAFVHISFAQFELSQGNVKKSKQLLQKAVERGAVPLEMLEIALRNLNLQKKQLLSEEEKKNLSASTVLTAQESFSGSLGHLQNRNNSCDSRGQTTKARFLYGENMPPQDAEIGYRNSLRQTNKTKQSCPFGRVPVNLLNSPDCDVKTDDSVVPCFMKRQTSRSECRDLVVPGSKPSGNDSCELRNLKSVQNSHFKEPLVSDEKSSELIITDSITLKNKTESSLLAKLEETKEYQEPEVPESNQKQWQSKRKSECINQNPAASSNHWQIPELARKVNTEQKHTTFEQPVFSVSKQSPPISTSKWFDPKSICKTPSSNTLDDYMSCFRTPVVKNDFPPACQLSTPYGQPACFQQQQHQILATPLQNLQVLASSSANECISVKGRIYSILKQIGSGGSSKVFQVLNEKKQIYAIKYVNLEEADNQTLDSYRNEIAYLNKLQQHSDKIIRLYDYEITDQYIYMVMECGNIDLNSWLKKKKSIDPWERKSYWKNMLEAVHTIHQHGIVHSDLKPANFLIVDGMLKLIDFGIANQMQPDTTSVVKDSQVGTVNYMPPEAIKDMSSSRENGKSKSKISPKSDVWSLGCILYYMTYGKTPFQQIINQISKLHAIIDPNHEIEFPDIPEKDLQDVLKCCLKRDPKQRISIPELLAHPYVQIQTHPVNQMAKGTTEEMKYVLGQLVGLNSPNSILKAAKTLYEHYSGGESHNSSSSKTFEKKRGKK
Sequence of Calcium/calmodulin-dependent protein kinase type 1D (Homo sapiens) (Q8IU85 whole entry, looked up): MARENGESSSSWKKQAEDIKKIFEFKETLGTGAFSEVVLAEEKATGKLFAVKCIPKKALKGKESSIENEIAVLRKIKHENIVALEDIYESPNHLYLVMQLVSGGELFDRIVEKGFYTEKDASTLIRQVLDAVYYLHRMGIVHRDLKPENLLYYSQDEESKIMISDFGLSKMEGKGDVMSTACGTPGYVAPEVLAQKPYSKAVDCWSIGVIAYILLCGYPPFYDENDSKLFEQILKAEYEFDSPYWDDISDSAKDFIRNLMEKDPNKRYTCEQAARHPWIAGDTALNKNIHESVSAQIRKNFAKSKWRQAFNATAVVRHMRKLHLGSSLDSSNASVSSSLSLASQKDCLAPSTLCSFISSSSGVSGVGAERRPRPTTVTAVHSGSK
Sequence of LIM domain kinase 1 (Homo sapiens) (P53667 whole entry, looked up, the tested form may be a part): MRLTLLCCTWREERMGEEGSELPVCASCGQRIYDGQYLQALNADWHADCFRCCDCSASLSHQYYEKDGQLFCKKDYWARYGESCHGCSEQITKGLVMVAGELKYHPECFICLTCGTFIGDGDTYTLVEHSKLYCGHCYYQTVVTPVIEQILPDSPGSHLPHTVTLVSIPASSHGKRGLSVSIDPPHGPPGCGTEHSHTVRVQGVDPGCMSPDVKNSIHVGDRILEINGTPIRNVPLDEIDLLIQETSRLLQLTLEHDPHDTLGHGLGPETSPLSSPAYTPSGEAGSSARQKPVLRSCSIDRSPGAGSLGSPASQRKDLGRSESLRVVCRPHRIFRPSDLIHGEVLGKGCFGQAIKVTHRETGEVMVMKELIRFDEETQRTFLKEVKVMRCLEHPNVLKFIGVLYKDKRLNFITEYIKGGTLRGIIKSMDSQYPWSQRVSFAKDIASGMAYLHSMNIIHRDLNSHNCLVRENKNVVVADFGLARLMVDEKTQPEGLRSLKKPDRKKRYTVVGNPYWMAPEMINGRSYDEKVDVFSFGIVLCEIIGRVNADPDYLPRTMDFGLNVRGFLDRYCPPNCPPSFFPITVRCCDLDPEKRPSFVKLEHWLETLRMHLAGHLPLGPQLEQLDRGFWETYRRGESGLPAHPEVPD
Sequence of Proto-oncogene tyrosine-protein kinase receptor Ret (P07949 29-1114 V804L limits assumed): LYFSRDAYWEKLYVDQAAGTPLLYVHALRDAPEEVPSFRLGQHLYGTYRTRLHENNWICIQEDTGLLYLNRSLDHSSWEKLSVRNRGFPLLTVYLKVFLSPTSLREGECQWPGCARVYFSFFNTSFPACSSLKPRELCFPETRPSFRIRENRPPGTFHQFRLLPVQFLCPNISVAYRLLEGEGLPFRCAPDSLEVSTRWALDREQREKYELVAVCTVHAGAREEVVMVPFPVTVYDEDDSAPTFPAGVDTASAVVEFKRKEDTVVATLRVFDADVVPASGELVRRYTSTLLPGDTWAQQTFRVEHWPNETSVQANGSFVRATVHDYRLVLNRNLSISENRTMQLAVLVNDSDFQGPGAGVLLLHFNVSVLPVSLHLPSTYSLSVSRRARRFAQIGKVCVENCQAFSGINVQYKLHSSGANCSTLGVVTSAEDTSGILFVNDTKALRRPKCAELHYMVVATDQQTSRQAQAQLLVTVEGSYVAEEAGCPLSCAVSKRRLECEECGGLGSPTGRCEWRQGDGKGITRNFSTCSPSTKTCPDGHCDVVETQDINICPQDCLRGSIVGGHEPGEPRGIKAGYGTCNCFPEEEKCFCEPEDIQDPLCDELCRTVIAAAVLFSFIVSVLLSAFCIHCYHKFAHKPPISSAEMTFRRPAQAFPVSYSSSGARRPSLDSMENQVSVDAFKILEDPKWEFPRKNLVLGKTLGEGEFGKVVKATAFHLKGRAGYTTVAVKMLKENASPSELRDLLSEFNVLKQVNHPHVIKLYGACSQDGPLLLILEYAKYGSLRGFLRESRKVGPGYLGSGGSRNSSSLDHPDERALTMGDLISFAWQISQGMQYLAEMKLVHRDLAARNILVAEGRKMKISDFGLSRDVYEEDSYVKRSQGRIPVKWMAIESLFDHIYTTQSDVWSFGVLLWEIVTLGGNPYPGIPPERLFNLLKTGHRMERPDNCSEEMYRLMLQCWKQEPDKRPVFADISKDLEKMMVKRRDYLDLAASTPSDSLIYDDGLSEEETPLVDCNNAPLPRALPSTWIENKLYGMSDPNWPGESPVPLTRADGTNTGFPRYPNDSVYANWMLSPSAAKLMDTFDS
Sequence of Ribosomal protein S6 kinase alpha-1 (Q15418 whole entry): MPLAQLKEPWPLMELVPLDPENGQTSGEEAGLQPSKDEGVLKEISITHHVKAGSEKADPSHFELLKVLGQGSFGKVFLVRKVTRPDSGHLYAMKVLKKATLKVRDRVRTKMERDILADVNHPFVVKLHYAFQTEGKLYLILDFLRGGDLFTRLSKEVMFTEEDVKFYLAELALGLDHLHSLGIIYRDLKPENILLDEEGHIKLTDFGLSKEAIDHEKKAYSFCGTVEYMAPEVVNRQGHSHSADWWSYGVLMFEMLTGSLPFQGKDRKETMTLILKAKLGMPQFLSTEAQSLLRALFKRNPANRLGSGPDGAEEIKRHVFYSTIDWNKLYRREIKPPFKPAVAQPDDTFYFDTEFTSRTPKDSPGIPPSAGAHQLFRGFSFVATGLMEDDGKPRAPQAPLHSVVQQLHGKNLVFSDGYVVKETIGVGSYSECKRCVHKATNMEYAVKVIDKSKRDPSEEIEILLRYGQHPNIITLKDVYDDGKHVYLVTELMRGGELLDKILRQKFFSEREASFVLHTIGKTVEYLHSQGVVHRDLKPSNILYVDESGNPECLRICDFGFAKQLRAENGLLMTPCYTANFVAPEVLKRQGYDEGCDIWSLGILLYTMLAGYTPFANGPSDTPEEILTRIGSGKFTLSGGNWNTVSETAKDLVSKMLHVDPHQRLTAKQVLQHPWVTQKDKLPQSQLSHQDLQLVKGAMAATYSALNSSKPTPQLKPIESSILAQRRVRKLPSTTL
Sequence of Protein kinase C beta type (Homo sapiens) (P05771 2-671 limits assumed): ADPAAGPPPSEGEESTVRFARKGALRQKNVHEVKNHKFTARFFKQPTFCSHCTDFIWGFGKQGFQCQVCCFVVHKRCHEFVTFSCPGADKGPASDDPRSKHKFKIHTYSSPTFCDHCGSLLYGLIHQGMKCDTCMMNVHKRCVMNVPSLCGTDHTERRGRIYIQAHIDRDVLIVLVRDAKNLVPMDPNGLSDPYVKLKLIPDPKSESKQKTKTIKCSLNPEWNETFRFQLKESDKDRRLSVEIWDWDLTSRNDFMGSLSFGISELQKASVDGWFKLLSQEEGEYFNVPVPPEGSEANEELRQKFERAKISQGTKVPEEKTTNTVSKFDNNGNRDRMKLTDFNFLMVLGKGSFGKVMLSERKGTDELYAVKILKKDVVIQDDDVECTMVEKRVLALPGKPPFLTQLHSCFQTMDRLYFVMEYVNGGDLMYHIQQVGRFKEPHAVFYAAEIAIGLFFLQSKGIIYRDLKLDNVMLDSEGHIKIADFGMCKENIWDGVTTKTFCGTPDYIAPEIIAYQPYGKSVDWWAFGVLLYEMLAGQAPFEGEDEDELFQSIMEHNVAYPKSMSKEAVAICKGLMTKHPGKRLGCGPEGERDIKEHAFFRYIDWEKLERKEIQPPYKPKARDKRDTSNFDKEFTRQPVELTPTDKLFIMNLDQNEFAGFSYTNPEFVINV
Sequence of Dual specificity tyrosine-phosphorylation-regulated kinase 4 (Homo sapiens) (Q9NR20 whole entry): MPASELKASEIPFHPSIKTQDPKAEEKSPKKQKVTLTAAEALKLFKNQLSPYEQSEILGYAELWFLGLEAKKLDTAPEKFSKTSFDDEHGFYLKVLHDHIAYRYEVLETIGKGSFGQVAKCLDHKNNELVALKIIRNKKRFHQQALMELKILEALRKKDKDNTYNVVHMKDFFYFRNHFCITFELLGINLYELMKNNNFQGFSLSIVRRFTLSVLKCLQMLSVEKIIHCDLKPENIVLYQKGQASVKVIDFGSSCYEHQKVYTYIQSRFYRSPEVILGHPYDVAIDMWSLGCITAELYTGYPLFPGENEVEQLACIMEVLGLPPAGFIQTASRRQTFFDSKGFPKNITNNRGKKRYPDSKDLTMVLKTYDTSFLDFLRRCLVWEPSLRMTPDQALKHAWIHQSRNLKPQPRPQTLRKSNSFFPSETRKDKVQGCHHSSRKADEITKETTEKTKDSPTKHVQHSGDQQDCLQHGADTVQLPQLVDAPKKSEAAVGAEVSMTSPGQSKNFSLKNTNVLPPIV

`COc1cc(N2CCC(N3CCN(C)CC3)CC2)ccc1Nc1ncc(Cl)c(Nc2ccccc2P(C)(C)=O)n1` [BRIGATINIB] was tested, and the inhibition [1] was less than 90%, the inhibition [2] was less than 90% and the inhibition [3] was “Active”. For the same compound, the inhibition [4] was “inactive”, the inhibition [5] was less than 90% and the Activity (Mus musculus [6]) was “Active”. For the same compound, the inhibition [7] was less than 90%, the IC50 [8] was 30 nM and the inhibition [9] was less than 90%. The MSD (NCI-H2228) was 62 days, the inhibition [10] was less than 90% and the Activity (Mus musculus [11]) was “Active”. The inhibition [12] was less than 90%, the inhibition [13] was “Active” and the inhibition [14] was less than 90%. The inhibition (BaF3) was “Active”, the inhibition [15] was less than 90% and the IC50 [16] was 23 nM. The IC50 [17] was 27 nM, the inhibition [18] was less than 90% and the inhibition [19] was less than 90%. It also gave an IC90 [20] of 94 nM, an inhibition [21] of less than 90% and an inhibition [22] of less than 90%. For the same compound, the inhibition [23] was less than 90%, the inhibition [24] was less than 90% and the IC50 [25] was 358 nM.

From ChEMBL document CHEMBL5696443 (Clin Cancer Res, 2016)
